Experimental data taken from the NIST ThermoML archive (doi:10.1016/j.jct.2016.03.001).

Assay: molar heat capacity at constant pressure
Details: 101.33 kPa, Crystal, Small sample (50 mg) DSC

O=[PH](O)O [phosphonic acid]
Details	molar heat capacity at constant pressure [J/K/mol]
243.2 K	48.3
244.2 K	48.54
245.2 K	48.62
246.2 K	48.87
247.2 K	49.03
248.2 K	49.36
249.2 K	49.69
250.2 K	49.77
251.2 K	50.1
252.2 K	50.35
253.2 K	50.59
254.2 K	50.59
255.2 K	50.84
256.2 K	51
257.2 K	51.08
258.2 K	51.17
259.2 K	51.33
260.2 K	51.49
261.2 K	51.9
262.2 K	52.15
263.2 K	52.48
264.2 K	52.72
265.2 K	52.97
266.2 K	53.22
267.2 K	53.54
268.2 K	53.87
269.2 K	54.2
270.2 K	54.28
271.2 K	54.45
272.2 K	54.69
273.2 K	54.86
274.2 K	55.35
275.2 K	55.76
276.2 K	57.81
277.2 K	58.46
278.2 K	57.32
279.2 K	56.91
280.2 K	57.15
281.2 K	57.32
282.2 K	57.56
283.2 K	57.81
284.2 K	57.64
285.2 K	57.64
286.2 K	57.89
287.2 K	58.87
288.2 K	60.18
289.2 K	60.02
290.2 K	60.02
291.2 K	60.1
292.2 K	60.59
293.2 K	61.09
294.2 K	61
295.2 K	61.09
296.2 K	61.5
297.2 K	61.58
298.2 K	62.07
299.2 K	62.48
300.2 K	62.81
301.2 K	63.38
302.2 K	63.63
303.2 K	64.45
304.2 K	64.94
305.2 K	65.35
306.2 K	65.76
307.2 K	66.33
308.2 K	66.74
309.2 K	67.4
310.2 K	67.65
311.2 K	68.06
312.2 K	68.71
313.2 K	69.37
314.2 K	70.11
315.2 K	70.35
316.2 K	71.09
317.2 K	71.66
318.2 K	72.48
319.2 K	73.22
320.2 K	73.88
321.2 K	75.03
322.2 K	75.93
323.2 K	77.24
324.2 K	78.55
325.2 K	80.44
326.2 K	81.91
327.2 K	83.64
328.2 K	85.11
